Laboratory results: patent US20150056702A1, “METHOD AND KIT FOR CULTURING STEM CELLS” (China Medical University, priority 2013, published 2015)

What was measured:
ES cells = assay: DNA microarray analysis of ES cells; type: cell-based, mouse
Experimental: The DNA microarray analysis was used to determine whether the gene expression profiles in various pathways in cells will be affected when the cells were cultured by a BP-containing medium.
An experimental group medium (BP10 or BP 40), a LIF-containing medium (without BP), and a control group medium (without BP) were used respectively in a 6-well culture dish to culture ES cells with an initial density of 1×10^4 per well for 24 hours. Next, performing total RNA extraction and the obtained RNA was labeled with Cy3. Samples were hybridized to Agilent Mouse G3 Whole Genome Oligo 86×60K microarrays (Agilent) according to the manufacturer's instructions. Arrays were scanned with a Microarray Scanner System and data was analyzed by using a GeneSpring GX software (Agilent).
According to the related research at present, the Jak-Stat signaling pathway is the most relevant in terms of stem cell self-renewal and pluripotency maintenance.

iPS cells = assay: Embryoid body formation and differentiation of the generated iPS cells; type: cell-based, mouse; conditions: iPS cells (T+P), BP10 medium, Tuj1, α-SMA, Gata4 staining
Experimental: An experimental group medium (BP10) was used to culture ES cells with an initial density of 1×10^4 per well in a 6-well culture dish. The ES cells were passaged 3 times and incubated for another 2 to 3 days in the Ultra Low Cluster Plate (Costar) containing the embryoid body formation medium [DMEM+20% FBS+β-mercaptoethanol (1 mM)+1% L-glutamine+1% NEAA], and then the embryoid body formation was observed. The embryoid bodies were placed into another 24-well culture dish (5 to 6 embryoid bodies/well) and incubated for another 3 days. Next, immunofluorescence staining was conducted to detect cells with an anti-Tuj1 antibody (ectoderm marker), an anti-α-SMA antibody (mesoderm marker) and an anti-Gata4 antibody (endoderm marker).
In addition, the iPS cells (T+P) were cultured by the steps shown in Example 7 to observe the embryoid body formation and differentiation.

[1] = BP40 medium (about 40 μg BP/ml), ES cells, 24 hours

CCCC=C1OC(=O)c2ccccc21 [BP, n-butylidenephthalide]
Amino acid metabolism: D, number of down-regulated genes (ES cells; [1]): 2 | Amino acid metabolism: I, number of up-regulated genes (ES cells; [1]): 0 | Amino acid metabolism: No. (regulated genes/genes of function) (ES cells; [1]): 2/23 | Apoptosis: % of genes regulated (ES cells; [1]): 7.4% | Apoptosis: D, number of down-regulated genes (ES cells; [1]): 6 | Apoptosis: I, number of up-regulated genes (ES cells; [1]): 1 | Apoptosis: No. (regulated genes/genes of function) (ES cells; [1]): 7/94 | Calcium signaling pathway: % of genes regulated (ES cells; [1]): 21.9% | Calcium signaling pathway: D, number of down-regulated genes (ES cells; [1]): 30 | Calcium signaling pathway: I, number of up-regulated genes (ES cells; [1]): 2 | Calcium signaling pathway: No. (regulated genes/genes of pathway) (ES cells; [1]): 32/146 | Cell adhesion molecules: % of genes regulated (ES cells; [1]): 22.7% | Cell adhesion molecules: D, number of down-regulated genes (ES cells; [1]): 21 | Cell adhesion molecules: I, number of up-regulated genes (ES cells; [1]): 13 | Cell adhesion molecules: No. (regulated genes/genes of function) (ES cells; [1]): 34/150 | Cell communication: % of genes regulated (ES cells; [1]): 21.7% | Cell communication: D, number of down-regulated genes (ES cells; [1]): 18 | Cell communication: I, number of up-regulated genes (ES cells; [1]): 2 | Cell communication: No. (regulated genes/genes of function) (ES cells; [1]): 20/92 | Cell cycle: % of genes regulated (ES cells; [1]): 3.7% | Cell cycle: D, number of down-regulated genes (ES cells; [1]): 6 | Cell cycle: I, number of up-regulated genes (ES cells; [1]): 0 | Cell cycle: No. (regulated genes/genes of function) (ES cells; [1]): 6/163 | ECM-receptor interaction: % of genes regulated (ES cells; [1]): 25.7% | ECM-receptor interaction: D, number of down-regulated genes (ES cells; [1]): 16 | ECM-receptor interaction: I, number of up-regulated genes (ES cells; [1]): 3 | ECM-receptor interaction: No. (regulated genes/genes of pathway) (ES cells; [1]): 19/74 | Insulin signaling pathway: % of genes regulated (ES cells; [1]): 4.9% | Insulin signaling pathway: D, number of down-regulated genes (ES cells; [1]): 3 | Insulin signaling pathway: I, number of up-regulated genes (ES cells; [1]): 2 | Insulin signaling pathway: No. (regulated genes/genes of pathway) (ES cells; [1]): 5/102 | JAK-STAT signaling pathway: % of genes regulated (ES cells; [1]): 25% | JAK-STAT signaling pathway: D, number of down-regulated genes (ES cells; [1]): 27 | JAK-STAT signaling pathway: I, number of up-regulated genes (ES cells; [1]): 8 | JAK-STAT signaling pathway: No. (regulated genes/genes of pathway) (ES cells; [1]): 35/140 | Lipid metabolism: % of genes regulated (ES cells; [1]): 12.8% | Lipid metabolism: D, number of down-regulated genes (ES cells; [1]): 12 | Lipid metabolism: I, number of up-regulated genes (ES cells; [1]): 2 | Lipid metabolism: No. (regulated genes/genes of function) (ES cells; [1]): 10/109 | MAPK signaling: % of genes regulated (ES cells; [1]): 10.6% | MAPK signaling: D, number of down-regulated genes (ES cells; [1]): 19 | MAPK signaling: I, number of up-regulated genes (ES cells; [1]): 5 | MAPK signaling: No. (regulated genes/genes of pathway) (ES cells; [1]): 24/227 | PPAR signaling pathway: % of genes regulated (ES cells; [1]): 36.5% | PPAR signaling pathway: D, number of down-regulated genes (ES cells; [1]): 14 | PPAR signaling pathway: I, number of up-regulated genes (ES cells; [1]): 12 | PPAR signaling pathway: No. (regulated genes/genes of pathway) (ES cells; [1]): 27/74 | TGF-β signaling pathway: % of genes regulated (ES cells; [1]): 13.3% | TGF-β signaling pathway: D, number of down-regulated genes (ES cells; [1]): 1 | TGF-β signaling pathway: I, number of up-regulated genes (ES cells; [1]): 5 | TGF-β signaling pathway: No. (regulated genes/genes of pathway) (ES cells; [1]): 6/45 | VEGF signaling pathway: % of genes regulated (ES cells; [1]): 0% | VEGF signaling pathway: D, number of down-regulated genes (ES cells; [1]): 0 | VEGF signaling pathway: I, number of up-regulated genes (ES cells; [1]): 0 | VEGF signaling pathway: No. (regulated genes/genes of pathway) (ES cells; [1]): 0/31 | Wnt signaling pathway: % of genes regulated (ES cells; [1]): 9.1% | Wnt signaling pathway: D, number of down-regulated genes (ES cells; [1]): 6 | Wnt signaling pathway: I, number of up-regulated genes (ES cells; [1]): 0 | Wnt signaling pathway: No. (regulated genes/genes of pathway) (ES cells; [1]): 6/66 | focal adhesion: % of genes regulated (ES cells; [1]): 12.7% | focal adhesion: D, number of down-regulated genes (ES cells; [1]): 20 | focal adhesion: I, number of up-regulated genes (ES cells; [1]): 2 | focal adhesion: No. (regulated genes/genes of function) (ES cells; [1]): 22/173 | tight junction: % of genes regulated (ES cells; [1]): 16.7% | tight junction: D, number of down-regulated genes (ES cells; [1]): 9 | tight junction: I, number of up-regulated genes (ES cells; [1]): 2 | tight junction: No. (regulated genes/genes of function) (ES cells; [1]): 11/66 | pathways of the genes significantly regulated (ES cells; ES cells cultured with the BP-containing medium, result in words): majorly involved in the PPAR, ECM-receptor interaction, and/or Jak-Stat signaling pathways | embryoid body formation and differentiation of the iPS cells (iPS cells): can differentiate into three germ layer cells
